≈ marks a conversion by molar mass, not a printed value.

The subject of series [1] is Leishmania amazonensis. The experiment in a line: Antileishmanial activity against promastigote form of Leishmania amazonensis assessed as parasite growth inhibition incubated for 72 hrs by neubauer counting chamber analysis. Format: functional, organism-based.
Series [2] has as its system Leishmania amazonensis. The series is described as follows: Antileishmanial activity against amastigote form of Leishmania amazonensis assessed as parasite growth inhibition. It counts as functional, organism-based.
The test system of series [3] is Leishmania amazonensis. The experiment in a line: Antileishmanial activity against promastigote form of Leishmania amazonensis. Format: functional, organism-based.
In series [4] the test system is Leishmania infantum. The experiment in a line: Antileishmanial activity against promastigote form of Leishmania infantum. It counts as functional, organism-based.
Series [5] deals with Leishmania braziliensis. The series is described as follows: Antileishmanial activity against promastigote form of Leishmania braziliensis. It counts as functional, organism-based. Particulars: Leishmania braziliensis.
Series [6] deals with Leishmania major. The series is described as follows: Antileishmanial activity against promastigote form of Leishmania major assessed as inhibition at 0.1 uM incubated for 72 hrs by MTT assay relative to control. It counts as functional. For orientation: Formazan colour is commonly taken as a measure of viable cells.
Series [7] relates to Leishmania major. The experiment in a line: Antileishmanial activity against promastigote form of Leishmania major assessed as inhibition at 100 uM incubated for 72 hrs by MTT assay relative to control. Format: functional.
The subject of series [8] is Leishmania major. The experiment in a line: Antileishmanial activity against promastigote form of Leishmania major assessed as inhibition of parasite growth by MTT colorimetric cell viability assay. Format: functional, organism-based.
In series [9] the test system is Leishmania donovani. The experiment in a line: Antileishmanial activity against amastigote form of Leishmania donovani at 50 uM assessed as inhibition of parasite growth relative to control. It counts as functional.
Series [10] concerns Leishmania panamensis. The experiment in a line: Antileishmanial activity against intracellular Leishmania panamensis amastigotes infected in human U-937 cells assessed as inhibition at 20 ug/mL incubated for 72 hrs by flow cytometry relative to control. Format: functional. (In general: In flow cytometry, cells or beads pass a laser one at a time.)
Series [11] relates to Leishmania major. The experiment in a line: Antileishmanial activity against promastigote form of Leishmania major. Format: functional, organism-based.
The subject of series [12] is Leishmania amazonensis. The series is described as follows: Antileishmanial activity against promastigote form of Leishmania amazonensis assessed as parasite growth inhibition incubated for 72 hrs by regression analysis. It counts as functional, organism-based.
The nature of series [13]: Selectivity index, ratio of IC50 for cytotoxicity against human THP-1 cells to IC50 for antileishmanial activity against axenic amastigote stage of Leishmania infantum infected in human THP-1 cells. Format: toxicity, cell-based. Particulars: read-out: Selectivity Index.
The subject of series [14] is THP-1. The experiment in a line: Cytotoxicity against human THP-1 cells assessed as inhibition incubated for 24 hrs by flow cytometry assay. It counts as functional, cell-based. As to conditions: THP-1, 24 h.
The test system of series [15] is Leishmania infantum. The experiment in a line: Antileishmanial activity against axenic amastigote stage of Leishmania infantum infected in human THP-1 cells assessed as inhibition of parasite growth incubated for 24 hrs by flow cytometry assay. Format: functional, organism-based. As to conditions: THP-1, 24 h.
Series [16] addresses Acetylcholinesterase (Homo sapiens) (UniProt P22303). The series is described as follows: Inhibition of AChE (unknown origin) assessed as inhibition zone by Ellman's colorimetric method. On the technique in general: Ellman's reagent forms a yellow product with free thiols.
In series [17] the test system is Leishmania amazonensis. The series is described as follows: Antileishmanial activity against promastigote form of Leishmania amazonensis assessed as inhibition of parasite growth at 200 uM incubated for 72 hrs by neubauer counting chamber analysis relative to control. It counts as functional.
Series [18] has as its system Leishmania amazonensis. The series is described as follows: Antileishmanial activity against intracellular Leishmania amazonensis MHOM/BR/75/Josefa amastigotes infected in BALB/c mouse peritoneal macrophages assessed as parasite growth inhibition incubated for 24 hrs by regression analysis. Format: functional, organism-based. Particulars: Peritoneal macrophage.
Series [19] can be described thus: Selectivity index, ratio of CC50 for cytotoxicity against mouse J774G8 cells to IC50 for antileishmanial activity against intracellular Leishmania amazonensis MHOM/BR/75/Josefa amastigotes infected in BALB/c mouse peritoneal macrophages. Format: toxicity, cell-based. Particulars: read-out: Ratio CC50/IC50.
Series [20] relates to Leishmania major. The experiment in a line: Antileishmanial activity against promastigote form of Leishmania major assessed as inhibition of parasite growth by Litchfield-Wilcoxon method. It counts as functional, organism-based.
Series [21] relates to Leishmania donovani. The experiment in a line: Antileishmanial activity against amastigote form of Leishmania donovani. It counts as functional, organism-based.
The subject of series [22] is Leishmania major. The series is described as follows: Antiproliferative activity against promastigote form of Leishmania major assessed as lethal dose. It counts as functional. Particulars: read-out: LD50 (the source's name).
For series [23], the system named is Leishmania donovani. The experiment in a line: Antileishmanial activity against promastigote form of Leishmania donovani. Format: functional, organism-based.

Chain of Acetylcholinesterase (Homo sapiens) (P22303 whole entry): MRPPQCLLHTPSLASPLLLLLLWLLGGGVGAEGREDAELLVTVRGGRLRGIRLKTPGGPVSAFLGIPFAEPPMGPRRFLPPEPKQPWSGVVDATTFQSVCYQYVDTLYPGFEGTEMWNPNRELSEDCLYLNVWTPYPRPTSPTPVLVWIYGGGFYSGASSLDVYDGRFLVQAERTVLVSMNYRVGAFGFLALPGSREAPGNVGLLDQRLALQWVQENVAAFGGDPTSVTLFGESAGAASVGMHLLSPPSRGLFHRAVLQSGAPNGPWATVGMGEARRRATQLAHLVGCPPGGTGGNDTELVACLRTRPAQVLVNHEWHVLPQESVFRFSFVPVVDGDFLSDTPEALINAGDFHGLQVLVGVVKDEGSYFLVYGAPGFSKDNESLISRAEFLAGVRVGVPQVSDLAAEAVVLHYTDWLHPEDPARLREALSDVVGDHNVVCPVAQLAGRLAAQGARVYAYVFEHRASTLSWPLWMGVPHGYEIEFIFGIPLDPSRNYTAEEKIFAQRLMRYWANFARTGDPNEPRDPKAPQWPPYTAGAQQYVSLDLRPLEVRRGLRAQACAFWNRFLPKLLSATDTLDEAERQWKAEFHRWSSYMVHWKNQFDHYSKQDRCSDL

Usually IC50 stands for the concentration that inhibits the measured activity by half. As for `CC(=O)OC[C@H]1O[C@@H](Oc2ccc3c(-c4ccccc4)cc(=O)oc3c2)[C@H](OC(C)=O)[C@@H](OC(C)=O)[C@@H]1OC(C)=O`, the concentration for half-maximal inhibition (IC50) turned out to be 10 µM in series [1] and 34.9 µM in series [2].

With `COc1cc2ccc(=O)oc2cc1O` [SCOPOLETIN], the IC50 in series [3], in series [4] and in [5] was over 50 µM each time.

The inhibition is the share of the control response that was lost under treatment. For `Cc1cccc(-n2c(-c3cc4ccccc4oc3=O)cs/c2=N/NC(=O)c2cc3ccccc3oc2=O)c1`, the inhibition at 0.1 µM in series [6] was determined as 53.7%. The inhibition at 100 µM in [7] was found to be 62.7%.

In the case of `C=C(C)C(CC/C(C)=C/COc1cc(O)cc2oc(=O)ccc12)OO` (configuration not stated), the IC50 in [8] amounted to 20.2 µM.

For the compound `N#CCC1=NN=C(c2cc3ccccc3oc2=O)C(CC(=O)c2ccccc2)O1` (configuration not stated), in series [9], the inhibition at 50 µM came out at 36%.

Take `COC(=O)C1=C(N)Oc2cc(O)c3c(C)cc(=O)oc3c2C1c1ccc(Br)cc1` (configuration not stated): the IC50 in [2] is 33.2 µM.

Take `Cc1cc(=O)oc2cc(OCCCOc3cc(Cl)ccc3Oc3ccc(Cl)cc3Cl)ccc12`: in series [10], the inhibition at 20 µg/mL is 34%.

Consider `C=C1C=C[C@H]2C(C)(C)C(=O)CC[C@]2(C)[C@@H]1COc1ccc2ccc(=O)oc2c1`, for which the IC50 in series [11] amounted to 43.8 µg/mL (≈ 116 µM).

For the compound `COC(=O)C1=C(N)Oc2cc(O)c3c(C)cc(=O)oc3c2C1c1ccc([N+](=O)[O-])cc1` (configuration not stated), the IC50 in [2] was determined as 33.1 µM.

Consider `CCC(C)C(=O)c1c(OC)c(CC=C(C)C)c(OC)c2c(-c3ccccc3)cc(=O)oc12` (configuration not stated), for which, in series [12], the IC50 is 15.1 µM.

In the case of `COc1cc2oc(=O)cc(C[Se]C#N)c2cc1OC`, the selectivity ratio in series [13] was 19.4. In addition, the IC50 in series [14] worked out at 16 µM; in [15] it was 0.82 µM.

For `C=C1CC(CC(C)(O)C(O)COc2ccc3ccc(=O)oc3c2O)OC1=O` (configuration not stated), the concentration for half-maximal inhibition (IC50) in series [8] came to 12.1 µM.

Take `CNC(=O)Oc1ccc2c(c1)[C@]1(C)CCN(C)[C@@H]1N2C`: in series [16], the inhibition zone (IZ) was found to be 9 mm.

`O=c1cc(-c2ccccc2)c2c(O)cc(O)cc2o1`: the IC50 in [12] is 60.2 µM.

For `COc1cc2ccc(=O)oc2c2c1OC(C)(C)C=C2`, the inhibition at 200 µM in series [17] was 100%. For the same compound, the IC50 in series [1] is 70 µM.

On to `CC1(O)CC(CC(C)(O)C(O)COc2ccc3ccc(=O)oc3c2O)OC1=O` (configuration not stated), for which the IC50 in [8] was over 100 µM.

Take `CCC(C)C(=O)c1c(O)c(CCC(C)C)c(O)c2c1OC(=O)CC2c1ccccc1` (configuration not stated): the IC50 is 0.6 µM in series [18] and 0.9 µM in series [12]. Moreover, in series [19], the selectivity ratio amounted to 142.

With `CC(C)=C1CC[C@H](C)[C@](C)(COc2ccc3ccc(=O)oc3c2)[C@H]1CCC(=O)O` [GALBANIC ACID], the half-inhibitory concentration (IC50) in series [20] stood at 165 µM.

Turning to `N#C/C(=N\Nc1ccccc1)C1=COC(c2cc3ccccc3oc2=O)=CC1C#N` (configuration not stated), in series [9], the inhibition at 50 µM came out at 92%. The compound further came in with an IC50 in [21] of 14.2 µM.

Consider `CCC(C)C(=O)c1c(O)c(CC=C(C)C)c(OC)c2c(-c3ccccc3)cc(=O)oc12` (configuration not stated), for which the IC50 was determined as 34 µM in series [18] and 2.4 µM in series [12].

On to `C/C(=C\COc1cc(O)cc2oc(=O)ccc12)C/C=C/C(C)(C)OO`, for which the half-inhibitory concentration (IC50) in series [8] turned out to be 26.2 µM.

Take `Cc1cc(=O)oc2cc(OCCCCCOc3cc(Cl)ccc3Oc3ccc(Cl)cc3Cl)ccc12`: in [10], the inhibition at 20 µg/mL stood at 50%.

In the case of `CC(C)=CCC/C(C)=C/COc1ccc2ccc(=O)oc2c1`, the IC50 in [20] was 17.1 µM. Moreover, in [22], the LC50 came out at 30 µM.

As for `COc1cc(O[C@@H]2O[C@H](COC(C)=O)[C@@H](OC(C)=O)[C@H](OC(C)=O)[C@H]2OC(C)=O)c2c(-c3ccc(OC(C)=O)c(OC(C)=O)c3)cc(=O)oc2c1`, the IC50 in [23] is 12.4 µM; in [21] it was over 90 µM.
